Data as given in patent US7528141B2, “Use of cyclopenta[g]quinazoline derivatives for treating cancer” (BTG International Limited, priority 2001, dated 2009).
Where “and” joins values, the source holds several entries; their conditions need not be identical. Equal values may be shown once. Read-outs that look alike come from different tables or passages of the source.

What was measured:
[1] = target: T1, thymidylate synthase (TS) from L1210 mouse leukaemia cells (Mus musculus, UniProt P07607); assay: Inhibition of isolated L1210 thymidylate synthase; type: biochemical
T1 construct: obtained in partially purified form from L1210 mouse leukaemia cells; endogenous in cells; host or cells: L1210 mouse leukaemia cells (enzyme partially purified)
T1 sequence (P07607 whole entry): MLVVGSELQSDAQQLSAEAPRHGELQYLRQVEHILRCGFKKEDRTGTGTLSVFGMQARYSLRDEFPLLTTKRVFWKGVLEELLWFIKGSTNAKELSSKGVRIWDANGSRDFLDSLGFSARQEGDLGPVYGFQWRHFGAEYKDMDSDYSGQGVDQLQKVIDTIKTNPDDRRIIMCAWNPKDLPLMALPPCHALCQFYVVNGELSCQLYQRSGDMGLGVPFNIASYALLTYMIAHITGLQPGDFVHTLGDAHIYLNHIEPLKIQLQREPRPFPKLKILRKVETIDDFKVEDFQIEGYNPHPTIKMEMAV

[2] = target: T2, reduced-folate carrier (RFC) (Mus musculus, UniProt P41438); assay: Inhibition of 3H MTX uptake in L1210 cells; type: cell-based; settings: Inhibition of 3H MTX uptake Ki, L1210, mouse L1210 tumor cells; high Ki = low affinity for RFC
T2 construct: endogenous in cells; host or cells: L1210
T2 sequence (P41438 1-512): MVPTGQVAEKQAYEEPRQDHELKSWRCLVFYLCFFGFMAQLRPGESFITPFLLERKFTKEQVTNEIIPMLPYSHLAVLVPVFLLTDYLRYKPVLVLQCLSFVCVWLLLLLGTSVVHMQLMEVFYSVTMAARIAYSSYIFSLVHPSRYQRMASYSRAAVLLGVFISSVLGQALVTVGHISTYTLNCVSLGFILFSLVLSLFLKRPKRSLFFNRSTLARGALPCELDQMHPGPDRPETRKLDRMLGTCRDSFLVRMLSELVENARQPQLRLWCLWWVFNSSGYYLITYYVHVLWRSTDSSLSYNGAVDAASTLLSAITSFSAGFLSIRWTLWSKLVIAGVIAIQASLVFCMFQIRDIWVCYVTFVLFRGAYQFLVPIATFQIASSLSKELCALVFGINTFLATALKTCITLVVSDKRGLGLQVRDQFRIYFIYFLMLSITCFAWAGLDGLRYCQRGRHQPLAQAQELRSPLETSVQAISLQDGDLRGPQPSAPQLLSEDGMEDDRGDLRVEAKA

KB cells = assay: Inhibition of cell growth, KB cells; settings: for fold increased IC50 in presence of folic acid, KB: IC50 + 1 μM FA vs without FA;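 for all read-outs here: KB nasopharyngeal carcinoma cells express the α-folate receptor, and leucovorin at 20 nM was the folate source in the growth medium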
A431 cells = assay: Inhibition of cell growth, A431 cells; settings: for fold increased IC50 in presence of folic acid, A431: IC50 + 1 μM FA vs without FA
A431-FBP cells = assay: Inhibition of cell growth, A431-FBP cells; settings: for fold increased sensitivity compared with A431, A431-FBP: A431 IC50 vs A431-FBP IC50; for fold increased IC50 in presence of folic acid, A431-FBP: IC50 + 1 μM FA vs without FA
[3] = target: T3, reduced-folate carrier (RFC) (Homo sapiens, UniProt P41440); assay: Inhibition of 3H MTX uptake in W1L2 cells; type: cell-based; settings: Inhibition of 3H MTX uptake Ki, W1L2, human lymphoblastoid W1L2 cells; high Ki = low affinity for RFC
T3 construct: endogenous in cells; host or cells: W1L2
T3 sequence (P41440 1-591): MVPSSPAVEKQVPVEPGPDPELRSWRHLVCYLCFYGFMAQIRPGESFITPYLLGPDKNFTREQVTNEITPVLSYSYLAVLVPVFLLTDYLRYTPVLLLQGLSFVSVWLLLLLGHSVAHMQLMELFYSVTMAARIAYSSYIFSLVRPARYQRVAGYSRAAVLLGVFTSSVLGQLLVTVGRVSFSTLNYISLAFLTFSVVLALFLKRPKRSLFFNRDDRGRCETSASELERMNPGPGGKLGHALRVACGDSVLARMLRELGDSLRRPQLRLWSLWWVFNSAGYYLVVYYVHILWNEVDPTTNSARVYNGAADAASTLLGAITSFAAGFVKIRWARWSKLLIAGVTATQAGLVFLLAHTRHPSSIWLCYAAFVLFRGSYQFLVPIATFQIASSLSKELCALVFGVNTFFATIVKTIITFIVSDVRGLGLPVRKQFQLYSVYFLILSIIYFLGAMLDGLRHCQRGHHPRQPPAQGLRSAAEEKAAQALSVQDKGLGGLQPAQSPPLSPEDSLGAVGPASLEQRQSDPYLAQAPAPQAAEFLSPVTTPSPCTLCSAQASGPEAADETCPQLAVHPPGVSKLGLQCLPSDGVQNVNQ

α-FR [4] = target: T4, α-FR (Mus musculus, UniProt P35846); assay: Binding to α-FR relative to folic acid, L1210-FBP cells; settings: L1210-FBP mouse tumor cells overexpressing α-FR; folic acid = 1
T4 construct: endogenous in cells; host or cells: mouse L1210-FBP cells
T4 sequence (P35846 25-232): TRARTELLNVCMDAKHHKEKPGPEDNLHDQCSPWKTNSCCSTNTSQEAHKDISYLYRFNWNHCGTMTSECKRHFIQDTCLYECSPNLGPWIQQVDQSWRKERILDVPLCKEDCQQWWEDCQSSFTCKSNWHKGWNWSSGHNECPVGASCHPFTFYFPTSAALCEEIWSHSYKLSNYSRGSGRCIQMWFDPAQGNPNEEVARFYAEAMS

α-FR [5] = target: T5, α-FR (Homo sapiens, UniProt P15328); assay: Binding to α-FR relative to folic acid, A431-FBP cells; settings: human A431 cells transfected with α-FR; folic acid = 1
T5 construct: expressed in transfected cells; host or cells: A431 (human vulvar carcinoma)
T5 sequence (P15328 25-234): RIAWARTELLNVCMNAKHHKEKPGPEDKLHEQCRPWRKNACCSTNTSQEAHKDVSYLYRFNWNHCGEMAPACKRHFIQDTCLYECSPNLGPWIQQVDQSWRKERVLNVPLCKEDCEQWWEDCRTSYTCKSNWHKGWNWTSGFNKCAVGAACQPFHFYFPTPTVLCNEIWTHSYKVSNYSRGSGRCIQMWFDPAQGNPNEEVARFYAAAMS

[6] = read-out: Inhibition of isolated L1210 TS, Kiapp
[7] = Homo sapiens, KB, read-out: Inhibition of cell growth, IC50, KB, 20 nM LV
[8] = read-out: Inhibition of cell growth, IC50, KB + 1 μM FA, 20 nM LV, + 1 μM folic acid
[9] = Homo sapiens, A-431, read-out: Inhibition of cell growth, IC50, A431
[10] = read-out: Inhibition of cell growth, IC50, A431 + 1 μM FA, 20 nM LV, + 1 μM folic acid
[11] = Homo sapiens, read-out: Inhibition of cell growth, IC50, A431-FBP
[12] = read-out: Inhibition of cell growth, IC50, A431-FBP + 1 μM FA, 20 nM LV, + 1 μM folic acid

SMILES | Ki [1, 6] | Ki [2] | IC50 (KB cells; [7]) | IC50 (KB cells; [8]) | IC50 (A431 cells; [9]) | IC50 (A431 cells; [10]) | IC50 (A431-FBP cells; [11]) | IC50 (A431-FBP cells; [12]) | Ki [3] | Inverse relative affinity for α-FR, L1210-FBP (α-FR [4]) | Inverse relative affinity for α-FR, A431-FBP (α-FR [5]) | fold increased IC50 in presence of folic acid, KB (KB cells; 20 nM LV) | fold increased IC50 in presence of folic acid, A431 (A431 cells; 20 nM LV) | fold increased sensitivity compared with A431, A431-FBP (A431-FBP cells; 20 nM LV) | fold increased IC50 in presence of folic acid, A431-FBP (A431-FBP cells; 20 nM LV) | Ki ([1]; Inhibition of isolated L1210 TS, Kiapp) | IC50 (KB cells; read-out: Inhibition of cell growth, IC50, KB, 20 nM LV)
Cc1nc2ccc(CN(C)c3ccc(C(=O)N[C@@H](CCC(=O)O)C(=O)O)s3)cc2c(=O)[nH]1 [Raltitrexed, reference compound] | 510 nM | 2600 nM and 2300 nM | 1.1 ± 0.71 nM | 1.2 ± 0.59 nM | 3.4 ± 1.6 nM | 3.6 ± 1.6 nM | 0.79 ± 0.36 nM | 1.3 ± 0.7 nM | – | – | – | – | – | – | – | – | –
C#CCN(c1ccc(C(=O)N[C@@H](CCC(=O)N[C@H](CCC(=O)O)c2nnn[nH]2)C(=O)O)cc1)[C@H]1CCc2cc3nc(C)[nH]c(=O)c3cc21 [CB300907 (S)] | 0.16 nM and 0.17 nM | 186000 ± 121000 nM | 6.2 ± 3 nM | 490 ± 140 nM | 1400 ± 820 nM | 1600 ± 1100 nM | 2.6 ± 1.8 nM | 430 ± 180 nM | 142000 ± 54000 nM | 0.61 ± 0.07 | 0.58 ± 0.032 | (79) fold | (1) fold | (540) fold | (170) fold | – | –
C#CCN(c1ccc(C(=O)N[C@@H](CCC(=O)N(C)C(CCC(=O)O)C(=O)O)C(=O)O)cc1)C1CCc2cc3nc(C)[nH]c(=O)c3cc21 (mixture of isomers) [CB300899 (R, S), N-methyl-N-{N-{4-[N-((6RS)-2-methyl-4-oxo-3,4,7,8-tetrahydro-6H-cyclopenta[g]quinazolin-6-yl)-N-(prop-2-ynyl)amino]benzoyl}-L-γ-glutamyl}-L-glutamic acid] | 0.78 nM | > 250000 nM | 5.1 ± 0.31 nM | 2200 ± 400 nM | 2200 ± 170 nM | 2100 ± 58 nM | 0.92 ± 0.12 nM | 1900 ± 170 nM | > 250000 nM | 0.62 ± 0.04 | 0.64 ± 0.046 | (430) fold | (1) fold | (2400) fold | (2100) fold | – | –
C#CCN(c1ccc(C(=O)N[C@@H](CCC(=O)N[C@H](CCC(=O)O)C(=O)O)C(=O)O)c(F)c1)C1CCc2cc3nc(C)[nH]c(=O)c3cc21 (mixture of isomers) [CB300947 (R, S), N-{N-{4-[N-((6RS)-2methyl-4-oxo-3,4,7,8-tetrahydro-6H-cyclopenta[g]-quinazolin-6-yl)-N-(prop-2-ynyl)amino]-2-fluorobenzoyl}-L-γ-glutamyl}-D-glutamic acid] | 0.46 nM and 0.77 nM | > 250000 nM | 8 ± 1 nM | 580 ± 30 nM | 1400 ± 260 nM | 1200 ± 510 nM | 9.4 ± 4 nM | 930 ± 210 nM | 97000 nM and 315000 nM | 0.73 ± 0.01 | 0.58 ± 0.017 | (73) fold | (1) fold | (150) fold | (100) fold | – | –
C#CCN(Cc1cc2c(=O)[nH]c(C)nc2cc1C)c1ccc(C(=O)N[C@@H](CCC(=O)O)C(=O)O)cc1 [CB3900, reference compound] | 23 nM | 4300 nM and 4700 nM | 130 ± 6 nM | 310 ± 40 nM | 2200 ± 260 nM | 2600 ± 920 nM | 1400 ± 360 nM | 1500 ± 290 nM | 1300 nM | 0.30 ± 0.07 | – | (2) fold | (1) fold | (2) fold | (1) fold | – | –
C#CCN(Cc1ccc2nc(C)[nH]c(=O)c2c1)c1ccc(C(=O)N[C@@H](CCC(=O)O)C(=O)O)cc1 [ICI 198583, reference compound] | – | 2600 ± 60 nM | 2 ± 0.4 nM | 20 ± 2 nM | 24 ± 4 nM | 26 ± 3.8 nM | 12 ± 5 nM | 20 ± 4.6 nM | 1200 nM and 1000 nM | – | – | – | – | – | – | – | –
C#CCN(c1ccc(C(=O)N[C@@H](CCC(=O)N[C@H](CCC(=O)O)C(=O)O)C(=O)O)cc1)[C@H]1CCc2cc3nc(CO)[nH]c(=O)c3cc21 [CB300945 (S)] | – | – | 2.7 ± 1.5 nM | 4800 ± 750 nM | 7000 nM | 6500 nM | 1.5 nM | 6400 nM | – | 0.70 ± 0.015 | 0.69 ± 0.05 | (1800) fold | (1) fold | (4700) fold | (4300) fold | 1.9 nM | –
C#CCN(c1ccc(C(=O)N[C@@H](CCC(=O)N[C@H](CCC(=O)O)C(=O)O)C(=O)O)cc1)[C@H]1CCc2cc3nc(C)[nH]c(=O)c3cc21 [CB300638 (S)] | 0.33 ± 0.16 nM | > 250000 nM | 3.6 ± 1.5 nM | 390 ± 180 nM | 810 ± 310 nM | 970 ± 580 nM | 3 ± 2.1 nM | 490 ± 170 nM | 115000 ± 12000 nM | 0.66 ± 0.08 | 0.53 ± 0.07 | (110) fold | (1) fold | (270) fold | (160) fold | – | –
C#CCN(c1ccc(C(=O)N[C@@H](CCC(=O)N(C)[C@@H](CCC(=O)O)C(=O)O)C(=O)O)cc1)C1CCc2cc3nc(CO)[nH]c(=O)c3cc21 (mixture of isomers) [CB300960 (R, S), N-{N-{4-[N-((6RS)-2-hydroxymethyl-4-oxo-3,4,7,8-tetrahydro-6H-cyclopenta[g]quinazolin-6-yl)-N-(prop-2-ynyl)amino]benzoyl}-L-γ-glutamyl}-N-methyl-L-glutamic acid] | – | – | – | – | 4500 nM | – | 28 nM | – | – | – | – | – | (1) fold | – | (180) fold | – | –
C#CCN(Cc1ccc2nc(N)[nH]c(=O)c2c1)c1ccc(C(=O)N[C@@H](CCC(=O)O)C(=O)O)cc1 [CB3717, reference compound] | – | 46000 ± 17000 nM | – | – | 1200 ± 630 nM | 1400 ± 560 nM | 260 ± 120 nM | 450 ± 140 nM | – | – | – | – | – | – | – | – | –
C#CCN(c1ccc(C(=O)N[C@@H](CCC(=O)O)C(=O)O)cc1)C1CCc2cc3nc(CO)[nH]c(=O)c3cc21 (stereo partly drawn) [CB300959 (R, S), reference compound] | 12 nM | – | 420 nM | – | 4200 nM | 5800 nM | 8800 nM | 18000 nM | – | 0.71 ± 0.012 | 0.57 ± 0.032 | (11) fold | (1) fold | (0.5) fold | (2) fold | – | 500 nM
